Assay results from patent publication US10544130B2, “Metallo-beta-lactamase inhibitors” (priority 2015, dated 2020).

System: Pseudomonas aeruginosa PAO1 MB9798 (efflux+, IMP-1)
Conditions: ratio MITC95 PA 9798/MITC95 PA 9799; imipenem at 2 μg/mL
Description: The strain background was Pseudomonas aeruginosa PAO1.
The strain set was then used as a pair to determine the effect of metallo-β-lactamase inhibitors of Formula I on the MIC of imipenem and/or ceftazidime. A fixed concentration of antibiotic was included in standard microbroth MIC tests, usually at the CLSI (Clinical and Laboratory Standards Institute) breakpoint concentration. A fixed amount of a class A/C beta-lactamase inhibitor was also included to inhibit the resident Pseudomonas AmpC enzyme. A serial titration of the metallo-β-lactamase inhibitor was included and the concentration of metallo-β-lactamase inhibitor which restores susceptibility of the strain to the included antibiotic was recorded. That concentration of metallo-β-lactamase inhibitor was then compared between the two strains to determine the fold difference between the efflux + (MB9798) and efflux − (MB9799) strains. This was taken as an indication of the extent to which the MBLi is subject to efflux.

**Q.** For `Nc1nc2c(-c3ccc(S(=O)(=O)N4CC[C@@H](F)[C@H](N)C4)c(S(N)(=O)=O)c3-c3nn[nH]n3)cccc2[nH]1` [Example 205, 3-(2-amino-1H-benzo[d]imidazol-4-yl)-6-(((3R,4R)-3-amino-4-fluoropiperidin-1-yl)sulfonyl)-2-(2H-tetrazol-5-yl)benzenesulfonamide], which Efflux ratio is on record?
**A.** The Efflux ratio was 8.00.

**Q.** How did the Efflux ratio turn out when `Nc1nc2c(-c3ccc(S(=O)(=O)N4CCOCC4)c(S(N)(=O)=O)c3-c3nnn[nH]3)cccc2s1` [Example 29, 3-(2-amino-1,3-benzothiazol-4-yl)-6-(morpholin-4-ylsulfonyl)-2-(1H-tetrazol-5-yl)benzenesulfonamide] was run?
**A.** The Efflux ratio was 16.00.

**Q.** For `Nc1nc2c(-c3ccc(S(=O)(=O)N4CC[C@@H](N)C4)c(S(N)(=O)=O)c3-c3nnn[nH]3)cccc2s1` [Example 62, 3-(2-amino-1,3-benzothiazol-4-yl)-6-{[(3R)-3-aminopyrrolidin-l-yl]sulfonyl}-2-(1H-tetrazol-5-yl)benzenesulfonamide], which Efflux ratio is on record?
**A.** The Efflux ratio was 1.00.

**Q.** Which Efflux ratio does the source give for `Nc1nc2c(-c3ccc(S(=O)(=O)N[C@H]4CCNC4)c(S(N)(=O)=O)c3-c3nnn[nH]3)cccc2s1` [Example 60, 4-(2-amino-1,3-benzothiazol-4-yl)-N1-[(3S)-pyrrolidin-3-yl]-3-(1H-tetrazol-5-yl)benzene-1,2-disulfonamide] here?
**A.** The Efflux ratio was 0.50.

**Q.** With `NC[C@@H]1CCN(S(=O)(=O)c2ccc(-c3cccc4sc(N)nc34)c(-c3nnn[nH]3)c2S(N)(=O)=O)C1.O=C(O)C(F)(F)F` [Example 94, (S)-(1-((4-(2-aminobenzo[d]thiazol-4-yl)-2-sulfamoyl-3-(1H-tetrazol-5-yl)phenyl)sulfonyl)pyrrolidin-3-yl)methanaminium 2,2,2-trifluoroacetate] as the compound, how does the Efflux ratio read?
**A.** Its Efflux ratio is 1.00.

**Q.** For `Nc1nc2c(-c3ccc(S(=O)(=O)NCC4(CO)CC4)c(S(N)(=O)=O)c3-c3nnn[nH]3)cccc2s1` [Example 37, 4-(2-amino-1,3-benzothiazol-4-yl)-N1-{[1-(hydroxymethyl)cyclopropyl]methyl}-3-(1H-tetrazol-5-yl)benzene-1,2-disulfonamide], which Efflux ratio is on record?
**A.** Its Efflux ratio is 1.00.

**Q.** How did the Efflux ratio turn out when `C[N+]1(C)CC[C@H](NS(=O)(=O)c2ccc(-c3cccc4[nH]c(N)nc34)c(-c3nn[n-]n3)c2S(N)(=O)=O)C1` [Example 166, (S)-5-(6-(2-amino-1H-benzo[d]imidazol-4-yl)-3-(N-(1,1-dimethylpyrrolidin-1-ium-3-yl)sulfamoyl)-2-sulfamoylphenyl)tetrazol-2-ide] was run?
**A.** The Efflux ratio was 1.00.

**Q.** Which Efflux ratio does the source give for `NCc1nc2c(-c3ccc(S(=O)(=O)NC[C@@H](O)CN)c(S(N)(=O)=O)c3-c3nn[nH]n3)cccc2[nH]1` [Example 305, (S)—N1-(3-amino-2-hydroxypropyl)-4-(2-(aminomethyl)-1H-benzo[d]imidazole-4-yl)-3-(2H-tetrazol-5-yl)benzene-1,2-disulfonamide] here?
**A.** Its Efflux ratio is 1.00.

**Q.** For `Nc1nc2c(-c3ccc(S(=O)(=O)NC[C@@H]4CCNC4)c(S(N)(=O)=O)c3-c3nnn[nH]3)cccc2s1` [Example 75, 4-(2-amino-1,3-benzothiazol-4-yl)-N^1-[(3R)-pyrrolidin-3-ylmethyl]-3-(1H-tetrazol-5-yl)benzene-1,2-disulfonamide], which Efflux ratio is on record?
**A.** The Efflux ratio was 1.00.

**Q.** For `Nc1ncccc1-c1ccc(S(=O)(=O)NC[C@@H](N)CO)c(S(N)(=O)=O)c1-c1nn[nH]n1` [Example 214, (R)-N1-(2-amino-3-hydroxypropyl)-4-(2-aminopyridin-3-yl)-3-(2H-tetrazol-5-yl)benzene-1,2-disulfonamide], which Efflux ratio is on record?
**A.** Its Efflux ratio is 8.00.

**Q.** With `CN1CC[C@H](CNS(=O)(=O)c2ccc(-c3cccc4sc(N)nc34)c(-c3nnn[nH]3)c2S(N)(=O)=O)C1` [Example 77, 4-(2-amino-1,3-benzothiazol-4-yl)-N1-{[(3S)-1-methylpyrrolidin-3-yl]methyl}-3-(1H-tetrazol-5-yl)benzene-1,2-disulfonamide] as the compound, how does the Efflux ratio read?
**A.** The Efflux ratio was 0.50.

**Q.** Which Efflux ratio does the source give for `Nc1nc2c(-c3ccc(S(=O)(=O)NCCC4CNC4)c(S(N)(=O)=O)c3-c3nnn[nH]3)cccc2s1` [Example 30, 4-(2-amino-1,3-benzothiazol-4-yl)-N1-(2-azetidin-3-ylethyl)-3-(1H-tetrazol-5-yl)benzene-1,2-disulfonamide] here?
**A.** Its Efflux ratio is 1.00.

**Q.** For `CN(C1CCCNC1)S(=O)(=O)c1ccc(-c2cccc3sc(N)nc23)c(-c2nnn[nH]2)c1S(N)(=O)=O` (stereo not shown) [Example 64, 4-(2-amino-1,3-benzothiazol-4-yl)-N1-methyl-N1-piperidin-3-yl-3-(1H-tetrazol-5-yl)benzene-1,2-disulfonamide], which Efflux ratio is on record?
**A.** The Efflux ratio was 2.00.

**Q.** How did the Efflux ratio turn out when `Nc1nc2c(-c3ccc(S(=O)(=O)N4CCC(N)(CO)C4)c(S(N)(=O)=O)c3-c3nnn[nH]3)cccc2s1` (stereo not shown) [Example 55, 3-(2-amino-1,3-benzothiazol-4-yl)-6-{[3-amino-3-(hydroxymethyl)pyrrolidin-1-yl]sulfonyl}-2-(1H-tetrazol-5-yl)benzenesulfonamide] was run?
**A.** Its Efflux ratio is 1.00.

**Q.** Which Efflux ratio does the source give for `CN(C[C@@H]1CCCN1)S(=O)(=O)c1ccc(-c2cccc3sc(N)nc23)c(-c2nnn[nH]2)c1S(N)(=O)=O.O=CO` [Example 121, (S)-2-((4-(2-aminobenzo[d]thiazol-4-yl)-N-methyl-2-sulfamoyl-3-(1H-tetrazol-5-yl)phenylsulfonamido)methyl)pyrrolidin-1-ium formate] here?
**A.** Its Efflux ratio is 4.00.

**Q.** `NCC(F)(F)CNS(=O)(=O)c1ccc(-c2cccc3sc(N)nc23)c(-c2nnn[nH]2)c1S(N)(=O)=O` [Example 47, 4-(2-amino-1,3-benzothiazol-4-yl)-N1-(3-amino-2,2-difluoropropyl)-3-(1H-tetrazol-5-yl)benzene-1,2-disulfonamide] was tested. Which Efflux ratio did it give?
**A.** Its Efflux ratio is 1.00.

**Q.** With `NC[C@@H](CO)NS(=O)(=O)c1ccc(-c2cccc3sc(N)nc23)c(-c2nnn[nH]2)c1S(N)(=O)=O` [Example 201, (S)—N^1-(1-amino-3-hydroxypropan-2-yl)-4-(2-aminobenzo[d]thiazol-4-yl)-3-(1H-tetrazol-5-yl)benzene-1,2-disulfonamide] as the compound, how does the Efflux ratio read?
**A.** Its Efflux ratio is 0.50.

**Q.** For `Nc1nc2c(-c3ccc(S(=O)(=O)N[C@@H]4CCNC4)c(S(N)(=O)=O)c3-c3nnn[nH]3)cccc2s1` [Example 63, 4-(2-amino-1,3-benzothiazol-4-yl)-N1-[(3R)-pyrrolidin-3-yl]-3-(1H-tetrazol-5-yl)benzene-1,2-disulfonamide], which Efflux ratio is on record?
**A.** Its Efflux ratio is 0.50.

**Q.** For `CC1(NS(=O)(=O)c2ccc(-c3cccc4sc(N)nc34)c(-c3nnn[nH]3)c2S(N)(=O)=O)CCCNC1` (stereo not shown) [Example 57, 4-(2-amino-1,3-benzothiazol-4-yl)-N1-(3-methylpiperidin-3-yl)-3-(1H-tetrazol-5-yl)benzene-1,2-disulfonamide], which Efflux ratio is on record?
**A.** The Efflux ratio was 1.00.

**Q.** How did the Efflux ratio turn out when `CS(=O)(=O)Nc1ccc(-c2ccc(S(=O)(=O)N[C@@H]3CCNC3)c(S(N)(=O)=O)c2-c2nnn[nH]2)cc1` [Example 136, (R)-4′-(methylsulfonamido)-N4-(pyrrolidin-3-yl)-2-(1H-tetrazol-5-yl)-[1,1′-biphenyl]-3,4-disulfonamide] was run?
**A.** The Efflux ratio was 2.00.

**Q.** How did the Efflux ratio turn out when `NS(=O)(=O)c1c(S(=O)(=O)N[C@@H]2CCNC2)ccc(-c2ccc3c(c2)C(=O)NC3)c1-c1nnn[nH]1` [Example 138, (R)-4-(3-oxoisoindolin-5-yl)-N1-(pyrrolidin-3-yl)-3-(1H-tetrazol-5-yl)benzene-1,2-disulfonamide] was run?
**A.** The Efflux ratio was 1.00.

**Q.** How did the Efflux ratio turn out when `Nc1ccc(-c2ccc(S(=O)(=O)N[C@H]3CCNC3)c(S(N)(=O)=O)c2-c2nn[nH]n2)cn1` [Example 195, (S)-4-(6-aminopyridin-3-yl)-N^1-(pyrrolidin-3-yl)-3-(2H-tetrazol-5-yl)benzene-1,2-disulfonamide] was run?
**A.** The Efflux ratio was 1.00.
